# Experimental data: patent US11224565B2, “N-acyldipeptide derivatives and their uses” (NeoStrata Company, Inc., priority 2011, dated 2022)
# Peptide text beside a SMILES is read from it.
# Test system: MB231 breast cancer cells
# Assay: In vitro screen for anti-tumor effects: proliferation of MB231 cells (MTS)
# Type: cell-based
# Settings: 20 μg/ml, end of 3 days of incubation, MTS absorbance at 490 nm vs water control
# Description: A typical in vitro screen for anti-tumor or anti-cancer effects was carried out as follows.
# An aliquot of 2,000 MB231 breast cancer cells (breast carcinoma cells) in 100 μl DMEM complete media (Sigma Chemical Co.) was plated in a 96 well plate containing at a concentration of 20 μg/ml a test substance or control water. To measure proliferation of the cancer cells, an aliquot of 20 μl of MTS reagent (Promega Co.) was added to each well and the cells were incubated at […] for a total of three days. The cells rapidly metabolized MTS reagent and the metabolized MTS reagent was measured at 490 nm at the end of days 1, 2 and 3. The reading was proportional to the number of cancer cells. The decrease in absorbance at each time point indicated fewer cancer cells. At the end of day 3, the decrease in absorbance with respect to the control indicated the inhibition by the test substance.
structure (smiles),measurement,value
CC(=O)N[C@H](C(=O)N[C@@H](C)C(N)=O)C(C)C [N-Ac-L-Val-L-Ala-NH2] (Ac-Val-Ala-NH2),inhibition of the growth of breast cancer cells,approximately 12%
